In ChEMBL document CHEMBL1201862, “PubChem BioAssay data set” (2004):
Activity calls are given as the source filed them.

Experiments:
[1] = target: T1, Ubiquitin-conjugating enzyme E2 N (Homo sapiens, UniProt P61088); assay type: functional;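 note: Dose-response confirmation in a TR-FRET assay detecting UBC13-driven polyubiquitin chain formation, inhibition measured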
T1 sequence (P61088 whole entry): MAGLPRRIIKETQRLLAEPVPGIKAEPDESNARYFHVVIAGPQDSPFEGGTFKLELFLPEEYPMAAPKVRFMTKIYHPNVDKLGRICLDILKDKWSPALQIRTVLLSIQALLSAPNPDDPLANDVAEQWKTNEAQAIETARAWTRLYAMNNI

[2] = target: Disintegrin and metalloproteinase domain-containing protein 17 (Homo sapiens, UniProt P78536); test: ADAM17 protease inhibitors, dose response, counter-screen for ADAM10 exosite inhibitor project, biochemical, quenched FRET substrate (AID 743253)
Chain of Disintegrin and metalloproteinase domain-containing protein 17 (P78536 whole entry, the tested form may be a part): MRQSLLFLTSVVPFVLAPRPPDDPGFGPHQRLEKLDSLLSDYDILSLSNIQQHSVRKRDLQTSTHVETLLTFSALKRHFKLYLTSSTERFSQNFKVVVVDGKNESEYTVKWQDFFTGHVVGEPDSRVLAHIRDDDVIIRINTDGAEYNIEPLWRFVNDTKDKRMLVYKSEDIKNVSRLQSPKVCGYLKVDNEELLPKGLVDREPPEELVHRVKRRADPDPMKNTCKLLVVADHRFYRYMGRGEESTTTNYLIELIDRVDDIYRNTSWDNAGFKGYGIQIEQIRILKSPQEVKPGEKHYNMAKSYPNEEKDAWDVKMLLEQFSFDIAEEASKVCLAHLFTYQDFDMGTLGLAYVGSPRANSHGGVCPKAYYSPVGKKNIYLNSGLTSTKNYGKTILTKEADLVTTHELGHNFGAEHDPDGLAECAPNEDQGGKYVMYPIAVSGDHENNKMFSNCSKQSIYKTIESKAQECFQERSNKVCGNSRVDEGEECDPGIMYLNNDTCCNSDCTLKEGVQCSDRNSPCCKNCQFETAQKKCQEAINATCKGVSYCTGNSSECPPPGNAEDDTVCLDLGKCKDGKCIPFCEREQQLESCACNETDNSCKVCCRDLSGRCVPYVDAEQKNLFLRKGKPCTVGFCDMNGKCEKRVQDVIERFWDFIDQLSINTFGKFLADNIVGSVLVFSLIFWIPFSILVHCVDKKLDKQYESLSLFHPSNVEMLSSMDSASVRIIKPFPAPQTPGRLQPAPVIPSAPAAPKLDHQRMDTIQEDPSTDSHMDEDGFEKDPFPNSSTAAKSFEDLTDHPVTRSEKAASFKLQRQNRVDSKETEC

Streptococcus = test: Group A Streptococcus viability loss, dose response, counter-screen for streptokinase expression inhibitor project, luminescence, BacTiterGlo (AID 1915); assay type: functional, organism-based;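 note: potency for reduction of bacterial viability or growth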
[3] = target: T2, Calpain-2 catalytic subunit (Sus scrofa, UniProt P43367); test: pig calpain II inhibitor potency, dose response, biochemical, fluorogenic peptide substrate (AID 1420); assay type: functional
T2 sequence (P43367 whole entry): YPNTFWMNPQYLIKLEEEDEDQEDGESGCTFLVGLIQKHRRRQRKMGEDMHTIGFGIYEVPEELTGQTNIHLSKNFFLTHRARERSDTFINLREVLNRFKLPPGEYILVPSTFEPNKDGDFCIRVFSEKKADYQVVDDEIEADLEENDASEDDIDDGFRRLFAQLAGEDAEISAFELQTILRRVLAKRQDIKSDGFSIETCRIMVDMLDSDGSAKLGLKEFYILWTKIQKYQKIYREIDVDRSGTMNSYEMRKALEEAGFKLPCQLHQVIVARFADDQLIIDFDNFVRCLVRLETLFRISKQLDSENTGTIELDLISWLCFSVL

[4] = cytotoxicity in HPDE-C7 cells, cell-based, fluorescence, HTS (AID 430); assay type: functional; details: Homo sapiens
Streptokinase A = target: T3, Streptokinase A (Streptococcus pyogenes serotype M1, UniProt P10520); test: S. pyogenes streptokinase expression inhibitors, potency, dose response, plasminogen activation absorbance, OD405 (AID 1914); assay type: functional, Streptococcus pyogenes M1 GAS;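 note: secreted streptokinase activity via plasminogen activation per viability signal from cell pellet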
T3 sequence (P10520 whole entry): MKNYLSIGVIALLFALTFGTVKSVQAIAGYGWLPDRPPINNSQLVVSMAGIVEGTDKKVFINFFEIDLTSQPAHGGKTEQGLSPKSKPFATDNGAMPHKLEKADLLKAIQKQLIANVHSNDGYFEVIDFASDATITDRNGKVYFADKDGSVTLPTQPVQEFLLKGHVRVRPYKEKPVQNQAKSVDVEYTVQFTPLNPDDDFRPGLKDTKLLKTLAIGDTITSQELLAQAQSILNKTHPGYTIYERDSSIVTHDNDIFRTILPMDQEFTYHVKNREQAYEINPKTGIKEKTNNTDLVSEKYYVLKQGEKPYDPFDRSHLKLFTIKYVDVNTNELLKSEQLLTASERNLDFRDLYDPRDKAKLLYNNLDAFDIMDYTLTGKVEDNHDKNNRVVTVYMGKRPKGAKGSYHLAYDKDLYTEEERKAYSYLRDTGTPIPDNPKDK

[5] = cytotoxicity in KRAS-transformed pancreatic duct cells, primary screen, cell-based, fluorescence, HTS (AID 431); assay type: functional; details: Homo sapiens;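 note: cell line used: HPDE-C7K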
[6] = target: Heat shock protein HSP 90-alpha (Homo sapiens, UniProt P07900); assay type: functional, organism-based
[7] = test system: Streptococcus sp. 'group A'; test: growth inhibition of control SK(-) GAS strain, dose response, counter-screen for streptokinase expression inhibitor project, luminescence, kanamycin, BacTiterGlo, confirmation (AID 1900); assay type: functional, organism-based
HeLa = test: Cytotoxicity counterscreen assay for transcriptional activators of heat shock protein 70 (Hsp70). [Related pubchem assays: 1203, 1252 ]; assay type: functional; details: Homo sapiens;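 note: cells exposed to compound for 16 hours before readout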
BJ [8] = test: cytotoxicity toward BJ-TERT fibroblasts, dose response, cell-based, RAS-independent, luminescence (AID 1933); assay type: functional; details: Homo sapiens
BJ [9] = test: cells; assay type: functional, cell-based; details: Homo sapiens
[10] = cytotoxicity toward DRD oncogenic fibroblasts, dose response, cell-based, non-viral oncogenic, luminescence (AID 1934); assay type: functional; details: Homo sapiens
BJ [11] = test: cytotoxicity toward BJ-TERT-LT-ST fibroblasts, dose response, cell-based, RAS-independent, luminescence (AID 1935); assay type: functional; details: Homo sapiens;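 note: BJ fibroblasts immortalized with TERT plus LT and ST oncogenes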
[12] = target: T4, Mannose-6-phosphate isomerase (Homo sapiens, UniProt P34949); test: inhibitors of human PMI, primary screen, biochemical, fluorescence intensity, coupled assay (AID 1209)
T4 sequence (P34949 whole entry): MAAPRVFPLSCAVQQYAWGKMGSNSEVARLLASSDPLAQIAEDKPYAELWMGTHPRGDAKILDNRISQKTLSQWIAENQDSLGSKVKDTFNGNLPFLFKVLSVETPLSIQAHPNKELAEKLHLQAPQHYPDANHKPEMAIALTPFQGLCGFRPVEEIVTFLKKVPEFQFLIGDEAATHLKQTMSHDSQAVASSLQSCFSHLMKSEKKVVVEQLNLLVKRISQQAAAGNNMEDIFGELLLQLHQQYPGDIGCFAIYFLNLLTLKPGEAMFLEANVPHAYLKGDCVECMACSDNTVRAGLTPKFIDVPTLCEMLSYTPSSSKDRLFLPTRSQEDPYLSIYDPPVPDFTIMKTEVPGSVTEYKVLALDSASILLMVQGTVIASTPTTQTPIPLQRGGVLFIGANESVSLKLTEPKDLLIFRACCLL

Leucine aminopeptidase = target: T5, Leucine aminopeptidase (Plasmodium falciparum 3D7, UniProt Q8IL11); test: P. falciparum M17LAP inhibitors, primary screen, biochemical, fluorogenic H-Leu-NHMec substrate, 1536-well (AID 1619); assay type: functional
T5 sequence (Q8IL11 whole entry): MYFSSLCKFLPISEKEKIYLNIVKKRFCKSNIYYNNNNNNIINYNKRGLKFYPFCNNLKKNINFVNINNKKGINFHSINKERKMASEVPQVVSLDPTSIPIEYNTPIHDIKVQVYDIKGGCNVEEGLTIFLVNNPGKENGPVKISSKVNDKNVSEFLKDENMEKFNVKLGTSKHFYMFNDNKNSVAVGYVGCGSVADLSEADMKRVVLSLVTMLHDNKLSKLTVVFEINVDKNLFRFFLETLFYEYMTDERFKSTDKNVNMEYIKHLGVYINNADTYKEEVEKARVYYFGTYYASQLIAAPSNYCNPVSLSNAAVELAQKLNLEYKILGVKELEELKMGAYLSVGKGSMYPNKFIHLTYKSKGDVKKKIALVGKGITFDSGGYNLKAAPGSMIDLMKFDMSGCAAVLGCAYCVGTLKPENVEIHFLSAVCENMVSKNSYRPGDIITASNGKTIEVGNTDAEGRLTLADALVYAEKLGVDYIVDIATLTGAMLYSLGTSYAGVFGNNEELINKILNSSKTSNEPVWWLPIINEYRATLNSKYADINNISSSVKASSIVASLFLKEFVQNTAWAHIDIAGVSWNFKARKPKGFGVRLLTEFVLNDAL

Cytochrome P450 3A4 = Cytochrome P450 3A4 (Homo sapiens, UniProt P08684);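 note: CYP3A4 tested as one member of a cytochrome P450 panel screen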
Chain of Cytochrome P450 3A4 (P08684 whole entry): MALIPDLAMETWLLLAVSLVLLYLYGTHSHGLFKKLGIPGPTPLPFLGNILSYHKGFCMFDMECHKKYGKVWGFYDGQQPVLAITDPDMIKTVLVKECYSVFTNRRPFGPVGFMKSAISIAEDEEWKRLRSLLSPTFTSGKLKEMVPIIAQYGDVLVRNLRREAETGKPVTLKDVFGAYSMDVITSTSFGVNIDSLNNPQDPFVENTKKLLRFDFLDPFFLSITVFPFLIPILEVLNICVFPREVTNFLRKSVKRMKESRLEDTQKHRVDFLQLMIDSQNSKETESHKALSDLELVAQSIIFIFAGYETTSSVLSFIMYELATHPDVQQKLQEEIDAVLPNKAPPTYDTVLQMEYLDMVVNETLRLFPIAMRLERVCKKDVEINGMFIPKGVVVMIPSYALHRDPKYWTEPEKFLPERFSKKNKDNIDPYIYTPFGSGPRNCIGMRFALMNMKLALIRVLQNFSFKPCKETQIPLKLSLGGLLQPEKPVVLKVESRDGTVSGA

Cytochrome P450 2C19 = Cytochrome P450 2C19 (Homo sapiens, UniProt P33261); test: Cytochrome panel assay with activity outcomes. Panel member name: p450-cyp2c19 Compounds with AC50 equal or less than 10 uM are considered active; assay type: functional; details: read-out: AC50
Chain of Cytochrome P450 2C19 (P33261 whole entry): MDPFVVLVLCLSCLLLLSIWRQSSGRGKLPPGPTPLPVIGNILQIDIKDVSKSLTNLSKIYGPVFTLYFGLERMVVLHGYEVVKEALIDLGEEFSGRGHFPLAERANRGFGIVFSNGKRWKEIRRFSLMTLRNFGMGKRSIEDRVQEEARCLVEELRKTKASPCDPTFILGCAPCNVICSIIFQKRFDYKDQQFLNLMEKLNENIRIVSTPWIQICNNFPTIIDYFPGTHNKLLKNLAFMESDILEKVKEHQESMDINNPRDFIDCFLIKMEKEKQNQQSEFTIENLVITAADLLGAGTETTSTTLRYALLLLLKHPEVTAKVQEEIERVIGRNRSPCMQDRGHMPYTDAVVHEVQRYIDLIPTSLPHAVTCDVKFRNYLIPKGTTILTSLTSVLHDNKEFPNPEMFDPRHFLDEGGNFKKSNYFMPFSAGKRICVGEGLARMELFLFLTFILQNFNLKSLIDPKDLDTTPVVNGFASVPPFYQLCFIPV

Cytochrome P450 1A2 = target: T6, Cytochrome P450 1A2 (Homo sapiens, UniProt P05177);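 note: PubChem cytochrome P450 panel assay, CYP1A2 panel member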
T6 sequence (P05177 whole entry): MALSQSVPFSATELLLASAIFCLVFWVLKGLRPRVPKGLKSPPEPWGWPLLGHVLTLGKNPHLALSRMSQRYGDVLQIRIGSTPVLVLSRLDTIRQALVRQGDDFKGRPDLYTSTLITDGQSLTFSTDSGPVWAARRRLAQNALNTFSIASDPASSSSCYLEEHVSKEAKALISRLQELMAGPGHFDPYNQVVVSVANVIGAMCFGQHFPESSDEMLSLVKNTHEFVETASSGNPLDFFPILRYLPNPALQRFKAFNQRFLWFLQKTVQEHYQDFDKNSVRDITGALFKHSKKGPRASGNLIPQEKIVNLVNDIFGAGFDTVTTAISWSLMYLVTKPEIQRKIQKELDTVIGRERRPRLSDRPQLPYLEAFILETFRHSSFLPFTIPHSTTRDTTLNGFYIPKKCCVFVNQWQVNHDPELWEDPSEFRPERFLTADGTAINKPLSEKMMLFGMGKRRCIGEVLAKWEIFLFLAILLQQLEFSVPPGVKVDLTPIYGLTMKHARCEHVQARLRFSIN

In the case of `C=C(C)COc1ccc(-c2n[nH]cc2Oc2cccc(OC)c2)c(O)c1`, the IC50 [1] is reported as > 20 µM (inactive), the IC50 [2] is reported as > 69.5 µM (inactive) and the EC50 (Streptococcus) is reported as 10 µM (active). For the same compound, the IC50 [3] was 7.92 µM (not active), the EC50 [4] was 8.77 µM (active) and the EC50 (Streptokinase A) was > 150 µM (not active). For the same compound, the EC50 [5] was 7.54 µM (active), the AC50 [6] was 7.54 µM (active) and the EC50 [7] was 8.18 µM (active).
With `CC1C/C(=C/c2ccccn2)C(=O)/C(=C/c2ccccn2)C1` (stereo unspecified) the CC50 (HeLa) was > 1.22 µM (not active).
In the case of `COc1ccc(/C=C/C(=O)c2cc(F)ccc2OC(=O)c2ccccc2OC)cc1OC`, the CC50 (HeLa) is reported as 14.6 µM (not active), the EC50 (BJ [8]) is reported as 1.14 µM (inconclusive) and the EC50 (BJ [9]) is reported as 2.76 µM (active). The EC50 [10] was 2.56 µM (active) and the EC50 (BJ [11]) was 1.41 µM (active).
With `CCCCC(=O)NNC(=S)NC(=O)c1cccc([N+](=O)[O-])c1` the IC50 [12] was > 50 µM (not active), the IC50 (Leucine aminopeptidase) was 49.1 µM (active) and the AC50 (Cytochrome P450 3A4) was “inconclusive”. For the same compound, the AC50 (Cytochrome P450 2C19) was 15.8 µM (inconclusive) and the AC50 (Cytochrome P450 1A2) was 22.4 µM (inconclusive).
With `COc1ccccc1CNC(=O)C1CCN(S(=O)(=O)c2cccc3nonc23)CC1` the IC50 (cells) was 3.4 µM (active).
